Test results published in article PMC6315490, “Angucycline Glycosides from an Intertidal Sediments Strain Streptomyces sp. and Their Cytotoxic Activity against Hepatoma Carcinoma Cells” (Marine Drugs, 2018).
Entries after “also recorded” stand apart in the source; their conditions may differ.

Experiments:
Format in all cases: cell-based
[1] = MTT cytotoxicity assay, normal liver cell LO2; conditions: human; MTT method; LO2 normal liver cells
Experimental: (§1) Though, the distinct in vivo toxicity restricted the further development of these compounds to be clinical drugs. Recently, an atypical angucycline, lomaiviticin A, was reported to be under preclinical evaluation for antitumor treatment due to its prominent cytotoxicity and effects of inducing double-strand breaks in DNA [14, 23]. In present work, 1–4 were assayed for their cytotoxic activity against normal liver cell LO2, hepatoma carcinoma HepG-2, SMMC-7721 and plc-prf-5 cell lines by 3-(4,5-dimethylthiazol-2-yl)-2,5-diphenyltetrazolium bromide (MTT) method (Table 2).
(§2) The cytotoxicity evaluations of 1–4 against normal liver cell and hepatoma carcinoma cells were carried out using the 3-(4,5-dimethylthiazole-2-yl)-2,5-diphenyltetrazolium bromide (MTT) assay. Doxorubicin was used as positive control drug and deionized H2O with the same DMSO concentration was used as parallel control. DAPI staining test was employed to qualitatively observe apoptosis, and the apoptotic ratio was measured by flow cytometric analysis (Becton Dickinson FACScan, San Jose, CA, USA). These tests were conducted using the methods as previously described.

[2] = system: hepatoma carcinoma SMMC-7721 cells; assay: MTT cytotoxicity assay, SMMC-7721; conditions: Homo sapiens, MTT method
Experimental: as §1, §2

[3] = system: hepatoma carcinoma plc-prf-5 cells; assay: MTT cytotoxicity assay, plc-prf-5; conditions: Homo sapiens, MTT method
Experimental: as §1, §2

[4] = system: hepatoma carcinoma HepG-2 cells; assay: MTT cytotoxicity assay, HepG-2; conditions: Homo sapiens, HepG2, MTT method
Experimental: as §1, §2

[5] = system: SMMC-7721 cells; assay: DAPI staining test for apoptosis; conditions: 0.025 to 0.100 μM for 24 h
Experimental: as §1
(§3) Figure 5 (a) Fluorescence micrographs of untreated and saquayamycin B-treated SMMC-7721 cells (24 h) stained with DAPI, Magnification: 100×; (b) Quantification of saquayamycin B-induced apoptosis in SMMC-7721 cell using flow cytometric analysis. ** p < 0.01 versus saquayamycin B 0 μM group. […]
(§4) The cytotoxicity evaluations of 1–4 against normal liver cell and hepatoma carcinoma cells were carried out using the 3-(4,5-dimethylthiazole-2-yl)-2,5-diphenyltetrazolium bromide (MTT) assay. […] DAPI staining test was employed to qualitatively observe apoptosis, and the apoptotic ratio was measured by flow cytometric analysis (Becton Dickinson FACScan, San Jose, CA, USA). […]

[6] = system: SMMC-7721 cells; assay: Flow cytometric analysis of apoptosis; conditions: Figure 5b
Experimental: as §1, §3, §4

Structure (SMILES) | IC50 [1] [nM] | IC50 [2] [nM] | IC50 [3] [nM] | IC50 [4] [nM] | Apoptosis by morphological characteristics in DAPI staining [5] | Apoptotic ratio of SMMC-7721 cells (flow cytometry), concentration dependence [6]
Cc1cc(O)c2c3c(cc(O)c2c1)C(=O)c1c(ccc(C2CC4OC5CC(=O)C(C)OC5OC4C(C)O2)c1O)C3=O (stereo not shown) [Compound 1, landomycin N] | > 40000 | > 40000 | > 40000 | > 40000 | – | –
Cc1cc(O)c2cc3c(c(O)c2c1)C(=O)c1ccc(C2CC4OC5CC(=O)C(C)OC5OC4C(C)O2)c(O)c1C3=O (stereo not shown) [Compound 2, galtamycin C] | > 40000 | > 40000 | > 40000 | > 40000 | – | –
CC1OC(OC2CCC(OC(C)(CC(=O)O)Cc3ccc4c(c3O)C(=O)c3ccc(C5CC6OC7CC(=O)C(C)OC7OC6C(C)O5)c(O)c3C4=O)OC2C)C=CC1=O (stereo not shown) [Compound 3, vineomycin D] | > 40000 | > 40000 | > 40000 | > 40000 | – | –
CC1OC(OC2CCC(OC3(C)CC(=O)C4(O)C5=C(C=CC4(O)C3)C(=O)c3c(ccc(C4CC6OC7CC(=O)C(C)OC7OC6C(C)O4)c3O)C5=O)OC2C)C=CC1=O (stereo not shown) [Compound 4, saquayamycin B] | 343 ± 81 | 33 ± 5 | 244 ± 1 | 135 ± 56 | chromatin dispersion and formation of apoptotic body; also recorded: induced apoptosis in SMMC-7721 cells | dependent on the concentrations of saquayamycin B
COc1cccc2c1C(=O)c1c(O)c3c(c(O)c1C2=O)C[C@@](O)(C(=O)CO)C[C@@H]3O[C@H]1C[C@H](N)[C@H](O)[C@H](C)O1 [Doxorubicin, reference compound] | 2260 ± 160 | 706 ± 4 | 1030 ± 990 | 919 ± 599 | – | –
